Among the data in US20230116972A1, “CD38 MODULATORS AND METHODS OF USE THEREOF” (Cytokinetics, Inc., priority 2021, published 2023) are IC50 values, retold here.

One assay concerns the target T1, mouse CD38 (Mus musculus, UniProt P56528).
T1 sequence (P56528 1-304): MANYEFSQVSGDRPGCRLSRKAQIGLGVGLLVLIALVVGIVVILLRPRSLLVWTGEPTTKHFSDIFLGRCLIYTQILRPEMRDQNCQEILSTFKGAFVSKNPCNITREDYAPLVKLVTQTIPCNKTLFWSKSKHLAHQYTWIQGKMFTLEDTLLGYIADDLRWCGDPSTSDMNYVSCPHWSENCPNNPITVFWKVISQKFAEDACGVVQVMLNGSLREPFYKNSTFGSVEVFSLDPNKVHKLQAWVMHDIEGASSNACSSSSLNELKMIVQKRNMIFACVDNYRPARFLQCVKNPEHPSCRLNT
The assay can be described thus: mouse recombinant CD38 enzyme assay (hydrolysis of NAD+). To be noted: read-out: mCD38 BioChem IC50. The class given is biochemical. In a few lines: (§1)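 Cell-free recombinant enzyme, NAD+ substrate, 60 min at RT. Stop/detect: ethanol/ADH plus semicarbazide and a CD38 inhibitor (15 min), then NaOH, then resazurin/diaphorase (15 min). Remaining NAD+ read as resorufin fluorescence, Ex/Em 540/590 nm. Inhibition fitted from dose responses.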

The target in assay [1] is T2, endogenous CD38 in HL60 cells (Homo sapiens, UniProt P28907).
T2 construct: endogenous in cells; host or cells: HL60 (leukemic cells, treated with all-trans retinoic acid)
T2 sequence (P28907 1-300): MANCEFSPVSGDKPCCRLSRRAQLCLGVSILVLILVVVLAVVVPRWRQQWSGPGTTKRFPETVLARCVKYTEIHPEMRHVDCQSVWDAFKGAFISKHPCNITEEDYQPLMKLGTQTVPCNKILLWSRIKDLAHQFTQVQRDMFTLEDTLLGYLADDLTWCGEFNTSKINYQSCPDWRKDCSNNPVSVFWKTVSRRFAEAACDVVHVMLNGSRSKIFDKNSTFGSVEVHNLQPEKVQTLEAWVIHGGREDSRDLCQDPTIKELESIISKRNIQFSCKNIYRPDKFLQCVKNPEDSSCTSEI
The assay is described as follows: cellular CD38 assay in HL60 cells (cellular NAD levels). To be noted: all-trans retinoic acid, 24 hours, read-out: hCD38 HL60 ATRA NAD Cell Diaphorase IC50. The class given is cell-based. In a few lines: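 HL60 cells (20000/well) were treated with compound in DMSO for 24 h. Cellular NAD was then measured by an enzymatic cycling mix (alcohol dehydrogenase, diaphorase, 40 uM resazurin, 10 uM FMN, 3% ethanol, Triton X-100, pH 8.4).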

The next assay deals with T3, human CD38 (Homo sapiens, UniProt P28907).
T3 sequence (P28907 1-300): T2 sequence (P28907 1-300)
The assay is described as follows: human recombinant CD38 enzyme assay (hydrolysis of NAD+). The class given is biochemical. The following applies: human recombinant CD38, 0.4 nM enzyme, 62.5 μM NAD+; read-out: hCD38 BioChem IC50. In a few lines:
as §1

A word on the IC50: it is the concentration needed to halve the response being measured.

For `Cn1cncc1-c1nccc(C(=O)Nc2ccc(C(F)(F)F)nc2)n1` [Compound 69, 2-(1-methyl-1H-imidazol-5-yl)-N-(6-(trifluoromethyl)pyridin-3-yl)pyrimidine-4-carboxamide], the results for the IC50 (at mouse CD38; in assay [1]; at human CD38) were 2 nM, 481 nM and 3 nM, respectively.

`CO[C@H]1CC[C@H](NC(=O)c2cc(C(C)C)nc(-c3cncn3C)n2)CC1` [Compound 171, 6-isopropyl-N-((1r,4r)-4-methoxycyclohexyl)-2-(1-methyl-1H-imidazol-5-yl)pyrimidine-4-carboxamide]: the IC50 at mouse CD38 was 3 nM; in assay [1], 3730 nM; at human CD38, 15 nM.

With `Cc1ccc(C(=O)Nc2cccnc2)nc1-n1ccnc1` [Compound 22, 6-(1H-imidazol-1-yl)-5-methyl-N-(pyridin-3-yl)picolinamide], the IC50 on mouse CD38 turned out to be 70 nM; in assay [1], 802 nM; on human CD38, 496 nM.

Turning to `CO[C@H]1CC[C@H](NC(=O)c2cc(C)cc(-c3cncn3C)n2)CC1` [Compound 98, N-(4-methoxycyclohexyl)-4-methyl-6-(1-methyl-1H-imidazol-5-yl)picolinamide], the IC50 at mouse CD38 came to 10 nM; in assay [1], 4740 nM; at human CD38, 106 nM.

As for `COCCO[C@H]1CC[C@H](NC(=O)c2cc(C)nc(-c3cncn3C)n2)CC1` [Compound 155, N-((1r,4r)-4-(2-methoxyethoxy)cyclohexyl)-6-methyl-2-(1-methyl-1H-imidazol-5-yl)pyrimidine-4-carboxamide], the results for the IC50 (on mouse CD38; in assay [1]; at human CD38) were 1 nM, 2300 nM and 24 nM, respectively.

With `O=C(NC1CC2(C1)CC(F)(F)C2)c1cncc(-n2ccnc2)n1` [Compound 103, N-(6,6-difluorospiro[3.3]heptan-2-yl)-6-(1H-imidazol-1-yl)pyrazine-2-carboxamide], the half-maximal inhibitory concentration (IC50) at mouse CD38 came to 30 nM; in assay [1], 1620 nM; at human CD38 it was 146 nM.

Consider `COc1cc(C(=O)Nc2ccc(C(F)(F)F)nc2)nc(-n2ccnc2)c1` [Compound 221, 6-(1H-imidazol-1-yl)-4-methoxy-N-(6-(trifluoromethyl)pyridin-3-yl)picolinamide], for which the IC50 is 2.2 nM at mouse CD38, 1130 nM in assay [1] and 3.6 nM on human CD38.

For the compound `CO[C@H]1CC[C@H](NC(=O)c2cc(C3CCOCC3)nc(-n3ccnc3)n2)CC1` [Compound 193, 2-(1H-imidazol-1-yl)-N-((1r,4r)-4-methoxycyclohexyl)-6-(tetrahydro-2H-pyran-4-yl)pyrimidine-4-carboxamide], the IC50 at mouse CD38 was determined as 39.8 nM; in assay [1] it was 11100 nM; on human CD38, 131 nM.

Consider `Cc1ccc(NC(=O)c2cc(C(F)(F)F)nc(-n3ccnc3)n2)cn1` [Compound 137, 2-(1H-imidazol-1-yl)-N-(6-methylpyridin-3-yl)-6-(trifluoromethyl)pyrimidine-4-carboxamide], for which the IC50 at mouse CD38 is 7 nM; in assay [1], 867 nM; on human CD38 it was 8 nM.

As to `Cn1cncc1-c1ccnc(C(=O)N[C@H]2C[C@H](C(C)(C)O)C2)n1` [Compound 284, N-((1r,3r)-3-(2-hydroxypropan-2-yl)cyclobutyl)-4-(1-methyl-1H-imidazol-5-yl)pyrimidine-2-carboxamide], the IC50 at mouse CD38 is 59.7 nM; in assay [1], 11000 nM; at human CD38 it was 277 nM.

As for `COc1ccc([C@H]2C[C@H](NC(=O)c3nccc(-n4ccnc4)n3)C2)cc1` [Compound 217, 4-(1H-imidazol-1-yl)-N-((1r,3r)-3-(4-methoxyphenyl)cyclobutyl)pyrimidine-2-carboxamide], the IC50 on mouse CD38 worked out at 19.7 nM; in assay [1], 1970 nM; on human CD38, 36.4 nM.

Take `Cn1cncc1-c1ccnc(C(=O)N[C@H]2C[C@@H](c3ccc(C(F)(F)F)nc3)C2)n1` [Compound 274, 4-(1-methyl-1H-imidazol-5-yl)-N-((1s,3s)-3-(6-(trifluoromethyl)pyridin-3-yl)cyclobutyl)pyrimidine-2-carboxamide]: the IC50 at mouse CD38 came to 185 nM; in assay [1], 10800 nM; on human CD38, 404 nM.

Consider `O=C(N[C@H]1C[C@H](c2ccc(F)cc2F)C1)c1nccc(-n2ccnc2)n1` [Compound 239, N-((1r,3r)-3-(2,4-difluorophenyl)cyclobutyl)-4-(1H-imidazol-1-yl)pyrimidine-2-carboxamide], for which the IC50 at mouse CD38 was 33.6 nM; in assay [1], 3130 nM; on human CD38 it was 61.2 nM.

Turning to `Cn1cncc1-c1nccc(C(=O)Nc2ccc(C(F)F)nc2)n1` [Compound 94, N-(6-(difluoromethyl)pyridin-3-yl)-2-(1-methyl-1H-imidazol-5-yl)pyrimidine-4-carboxamide], the IC50 at mouse CD38 turned out to be 2 nM; in assay [1] it was 241 nM; on human CD38, 2 nM.

On to `O=C(N[C@H]1CC[C@H](C(F)F)CC1)c1ccnc(-c2cncs2)n1` [Compound 87, N-((1r,4r)-4-(difluoromethyl)cyclohexyl)-2-(thiazol-5-yl)pyrimidine-4-carboxamide], for which the IC50 turned out to be 138 nM on mouse CD38, 10100 nM in assay [1] and 562 nM on human CD38.

`O=C(Nc1ccnc(C(F)(F)F)c1)c1cccc(-n2ccnc2)n1` [Compound 38, 6-(1H-imidazol-1-yl)-N-(2-(trifluoromethyl)pyridin-4-yl)picolinamide]: the IC50 was 7 nM at mouse CD38, 873 nM in assay [1] and 10 nM on human CD38.

`O=C(N[C@H]1CC[C@H](C(F)(F)F)CC1)c1ccnc(-n2ccnc2)n1` [Compound 79, 2-(1H-imidazol-1-yl)-N-((1r,4r)-4-(trifluoromethyl)cyclohexyl)pyrimidine-4-carboxamide]: the IC50 on mouse CD38 came to 12 nM; in assay [1] it was 2330 nM; at human CD38, 21 nM.

Turning to `Cn1cncc1-c1ccnc(C(=O)N[C@H]2CC[C@H](OCc3ccccc3)CC2)n1` [Compound 312, N-((1r,4r)-4-(benzyloxy)cyclohexyl)-4-(1-methyl-1H-imidazol-5-yl)pyrimidine-2-carboxamide], the IC50 at mouse CD38 is 10.2 nM; in assay [1], 2790 nM; on human CD38 it was 26.5 nM.

Regarding `COCCOc1cc(C(=O)Nc2ccc(C(F)(F)F)nc2)nc(-c2cncn2C)n1` [Compound 267, 6-(2-methoxyethoxy)-2-(1-methyl-1H-imidazol-5-yl)-N-(6-(trifluoromethyl)pyridin-3-yl)pyrimidine-4-carboxamide], the IC50 on mouse CD38 was determined as 0.3 nM; in assay [1], 403 nM; on human CD38, 2.5 nM.

Turning to `CC(=O)N1CC2(CC(NC(=O)c3cccc(-n4ccnc4)n3)C2)C1` [Compound 47, N-(2-acetyl-2-azaspiro[3.3]heptan-6-yl)-6-(1H-imidazol-1-yl)picolinamide], the IC50 is 100 nM at mouse CD38, 9150 nM in assay [1] and 417 nM at human CD38.

Take `COC(=O)N1CC2(CC(NC(=O)c3cccc(-n4ccnc4)n3)C2)C1` [Compound 48, methyl 6-(6-(1H-imidazol-1-yl)picolinamido)-2-azaspiro[3.3]heptane-2-carboxylate]: the figures for the IC50 (at mouse CD38; in assay [1]; at human CD38) were 46 nM, 3760 nM and 244 nM, respectively.
